Laboratory results from PubChem BioAssay AID330 (DTP/NCI, 2004).
Where “and” joins values, the source holds several entries; their conditions need not be identical. Equal values may be shown once. Toxic doses and inconclusive results are not listed.

Tested on: P388 leukemia ip, CD2F1 mice, survival T/C
Assay: NCI In Vivo Anticancer Drug Screen. Data for tumor model P388 Leukemia (intraperitoneal) in CD2F1 (CDF1) mice
Details: endpoint: median survival time, higher = longer survival
Summary of the method: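 Mice carrying the transplanted tumor received test compound or vehicle. Survival was recorded in each group, and the value is the treated-group measurement divided by that of the vehicle-treated control group.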

SMILES: CCOC(=O)c1[nH]c(=O)c2ccccc2c1O
- T/C (dose: 12.5 mg/kg/injection, schedule: Q01DX009 (ip), vehicle: suspension in saline): 91 % of control
- T/C (dose: 25.0 mg/kg/injection, schedule: Q01DX009 (ip), vehicle: suspension in saline): 92 % of control
- T/C (dose: 50.0 mg/kg/injection, schedule: Q01DX009 (ip), vehicle: suspension in saline): 99 % of control
- T/C (dose: 100.0 mg/kg/injection, schedule: Q01DX009 (ip), vehicle: suspension in saline): 98 % of control

SMILES: Cn1c2ccc(Cl)cc2c2c3ncncc3ccc21
- T/C (dose: 50.0 mg/kg/injection, schedule: Q01DX001 (ip), vehicle: Klucel (hydroxypropylcellulose) (HPC)): 96 % of control
- T/C (dose: 100.0 mg/kg/injection, schedule: Q01DX001 (ip), vehicle: Klucel (hydroxypropylcellulose) (HPC)): 89 % of control
- T/C (dose: 200.0 mg/kg/injection, schedule: Q01DX001 (ip), vehicle: Klucel (hydroxypropylcellulose) (HPC)): 91 % of control

SMILES: O=c1oc(NC2CCCCC2)nc2ccccc12
- T/C (dose: 60.0 mg/kg/injection, schedule: Q01DX005 (ip), vehicle: Klucel (hydroxypropylcellulose) (HPC)): 93 % of control
- T/C (dose: 120.0 mg/kg/injection, schedule: Q01DX005 (ip), vehicle: Klucel (hydroxypropylcellulose) (HPC)): 92 % of control
- T/C (dose: 240.0 mg/kg/injection, schedule: Q01DX005 (ip), vehicle: Klucel (hydroxypropylcellulose) (HPC)): 92 % of control

SMILES: O=C1c2ccccc2C(=O)c2c(O)c(NCCO)cc(O)c21
- T/C (dose: 100.0 mg/kg/injection, schedule: Q04DX002 (ip), vehicle: Klucel (hydroxypropylcellulose) (HPC)): 92 % of control
- T/C (dose: 200.0 mg/kg/injection, schedule: Q04DX002 (ip), vehicle: Klucel (hydroxypropylcellulose) (HPC)): 101 % of control
- T/C (dose: 400.0 mg/kg/injection, schedule: Q04DX002 (ip), vehicle: Klucel (hydroxypropylcellulose) (HPC)): 93 % of control

SMILES: CC(=O)C1=C([Si](C)(C)C)N=NC1(C)C
- T/C (dose: 50.0 mg/kg/injection, schedule: Q01DX005 (ip), vehicle: saline with Tween-80): 111 % of control
- T/C (dose: 100.0 mg/kg/injection, schedule: Q01DX005 (ip), vehicle: saline with Tween-80): 109 % of control
- T/C (dose: 200.0 mg/kg/injection, schedule: Q01DX005 (ip), vehicle: saline with Tween-80): 102 % of control

SMILES: Clc1nc2ccccc2[nH]1
- T/C (dose: 25.0 mg/kg/injection, schedule: Q01DX009 (ip), vehicle: saline): 101 % of control
- T/C (dose: 50.0 mg/kg/injection, schedule: Q01DX009 (ip), vehicle: saline): 99 % of control
- T/C (dose: 100.0 mg/kg/injection, schedule: Q01DX009 (ip), vehicle: saline): 95 % of control
- T/C (dose: 200.0 mg/kg/injection, schedule: Q01DX009 (ip), vehicle: saline): 98 % of control

SMILES: COc1cccc2c1C(=O)c1c(O)c3c(c(O)c1C2=O)C[C@@](O)(/C(C)=N\O)C[C@@H]3OC1CC(N)C(O)C(C)O1 (stereo partly drawn)
- T/C (dose: 3.13 mg/kg/injection, schedule: Q01DX009 (ip), vehicle: water): 154 % of control
- T/C (dose: 6.25 mg/kg/injection, schedule: Q01DX009 (ip), vehicle: water): 165 % of control
- T/C (dose: 6.25 mg/kg/injection, schedule: Q04DX003 (ip), vehicle: water): 115 % of control and 124 % of control
- T/C (dose: 12.5 mg/kg/injection, schedule: Q01DX009 (ip), vehicle: water): 183 % of control
- T/C (dose: 12.5 mg/kg/injection, schedule: Q04DX003 (ip), vehicle: water): 116 % of control and 117 % of control
- T/C (dose: 25.0 mg/kg/injection, schedule: Q01DX009 (ip), vehicle: water): 100 % of control
- T/C (dose: 25.0 mg/kg/injection, schedule: Q04DX003 (ip), vehicle: water): 123 % of control
- T/C (dose: 100.0 mg/kg/injection, schedule: Q04DX003 (ip), vehicle: water): 119 % of control
- T/C (dose: 200.0 mg/kg/injection, schedule: Q04DX003 (ip), vehicle: water): 101 % of control

SMILES: CCCCNC1(N(C)C)N=C(N(C)C)N=C(N(C)C)O1 (stereo not drawn)
- T/C (dose: 50.0 mg/kg/injection, schedule: Q01DX005 (ip), vehicle: saline): 88 % of control
- T/C (dose: 100.0 mg/kg/injection, schedule: Q01DX005 (ip), vehicle: saline): 89 % of control
- T/C (dose: 200.0 mg/kg/injection, schedule: Q01DX005 (ip), vehicle: saline): 95 % of control

SMILES: OC1CCC2SC1CCC2O (stereo not drawn)
- T/C (dose: 50.0 mg/kg/injection, schedule: Q01DX009 (ip), vehicle: water): 95 % of control
- T/C (dose: 100.0 mg/kg/injection, schedule: Q01DX009 (ip), vehicle: water): 102 % of control
- T/C (dose: 200.0 mg/kg/injection, schedule: Q01DX009 (ip), vehicle: water): 108 % of control
- T/C (dose: 400.0 mg/kg/injection, schedule: Q01DX009 (ip), vehicle: water): 100 % of control

SMILES: CC(=O)/C(=C\c1ccccc1F)C(=O)CCN(C)C
- T/C (dose: 60.0 mg/kg/injection, schedule: Q01DX005 (ip), vehicle: saline): 109 % of control
- T/C (dose: 120.0 mg/kg/injection, schedule: Q01DX005 (ip), vehicle: saline): 118 % of control

SMILES: CC(C)(C)c1ccnc(N=C2N=C(Nc3cc(C(C)(C)C)ccn3)c3ccccc32)c1
- T/C (dose: 50.0 mg/kg/injection, schedule: Q01DX009 (ip), vehicle: saline with Tween-80): 89 % of control
- T/C (dose: 100.0 mg/kg/injection, schedule: Q01DX009 (ip), vehicle: saline with Tween-80): 89 % of control

SMILES: O=C(CC(c1ccccc1)C(C(=O)O)c1ccc(Br)cc1)c1ccccc1 (stereo not drawn)
- T/C (dose: 12.5 mg/kg/injection, schedule: Q01DX005 (ip), vehicle: Klucel (hydroxypropylcellulose) (HPC)): 100 % of control
- T/C (dose: 25.0 mg/kg/injection, schedule: Q01DX005 (ip), vehicle: Klucel (hydroxypropylcellulose) (HPC)): 90 % of control
- T/C (dose: 50.0 mg/kg/injection, schedule: Q01DX005 (ip), vehicle: Klucel (hydroxypropylcellulose) (HPC)): 89 % of control
